We go through seven molecules from patent US20250084062A1, “SUBSTITUTED QUINOLINE DERIVATIVE” (ASTELLAS PHARMA INC., priority 2021, published 2025).

Assay [1] concerns acetylcholine receptor clustering. As to conditions: NPL 16; cited from earlier work.
Assay [2] has as its system MuSK-type myasthenia gravis animal model. Nature of the assay: Suppressing action on muscle weakness (grip strength) in MuSK type myasthenia gravis animal model (Test Example 2). Conditions: grip strength test on 5th day, female DBA/2 mice, FIG. 1. The class given is in vivo, mouse. The protocol: Test Example 2: Suppressing Action on Muscle Weakness in MuSK Type Myasthenia Gravis Animal Model
(§1) In a MuSK-type myasthenia gravis animal model, in which the production of autoantibodies against endogenous MuSK was induced by immunizing with human recombinant MuSK protein, decreased grip strength was evaluated as a pathological index.
(§2) A grip strength measuring device (GPM-100B; Melquest) was used to measure the grip strength of the extremities.
(§3) Repeated daily oral administration of the test compound in the MuSK-type myasthenia gravis animal model was performed as follows.
Seven point five micrograms of human MuSK recombinant protein (9810-MK; R&D systems) prepared with Freund's Complete Adjuvant (263810; Becton, Dickinson and Company) was intradermally administered to the tail of 8-week-old female DBA/2 mice (Charles River Laboratories Japan). Two weeks later, 7.5 micrograms of human MuSK recombinant protein prepared with Freund's Incomplete Adjuvant (263910; Becton, Dickinson and Company) was intradermally administered to the tail to induce myasthenia gravis mice. A week later, antibody titers against human MuSK in serum and grip strengths by the grip strength test were measured, and the mice were divided into groups of 6 mice each based on the antibody titer value and subjected to administration of the test compound. […]

Assay [3] shares this test system. As to the kind of experiment: Suppressing action on muscle weakness (grip strength) in MuSK type myasthenia gravis animal model (Test Example 3). Type of assay: in vivo, mouse. As to conditions: grip strength test on 4th day, female DBA/2 mice, FIG. 2. The protocol: Test Example 3: Suppressing Action on Muscle Weakness in MuSK Type Myasthenia Gravis Animal Model
as §1, §2, §3
Seven point five micrograms of human MuSK recombinant protein (9810-MK; R&D systems) prepared with Freund's Complete Adjuvant (263810; Becton, Dickinson and Company) was intradermally administered to the tail of 8-week-old female DBA/2 mice (Charles River Laboratories Japan). Two weeks later, 7.5 micrograms of human MuSK recombinant protein prepared with Freund's Incomplete Adjuvant (263910; Becton, Dickinson and Company) was intradermally administered to the tail to induce myasthenia gravis mice. A week later, antibody titers against human MuSK in serum and grip strengths by the grip strength test were measured, and the mice were divided into groups of 6 mice each and subjected to administration of the test compound. The test compound was orally administered to the mice in the treatment group (3 and 10 mg/kg, suspended in 0.5% methylcellulose twice daily), and vehicle (0.5% methylcellulose) was used for the mice in the control group in place of the test compound. As a normal group, mice of the same age, same sex, and same strain were used that were not immunized with human recombinant MuSK protein. A grip strength test was performed after the administration in the morning of the 4th day.
The significance test between the normal group and the control group was performed by the Student-t test (*p<0.05). In addition, Dunnett's multiple comparison test was used between the control group and the test compound group (#p<0.05). A p-value less than 5% was regarded as significant in all the tests.

Assay [4] relates to acetylcholine receptor clustering in C2Cl2 cells. As to the kind of experiment: Induction of acetylcholine receptor clustering in mouse myoblasts C2Cl2 cells (Test Example 1). The class given is cell-based. Conditions: Mus musculus; for Emax: Myoblast, read-out: Max; for EC50: Myotube. The protocol:
Test Example 1: Evaluation of the Induction of Acetylcholine Receptor Clustering in Mouse Myoblasts C2Cl2 Cells
Induction of acetylcholine receptor clustering by the test compound was evaluated by using fluorescently-labeled Bungarotoxin to image and quantify the acetylcholine receptor cluster region induced by the differentiation of myoblasts into myotubes, and measure the change in area. The following test method was optimized with reference to various reports including FEBS let., 586, 3111-3116 (2012). When a concentration response curve is obtained by plotting the logarithmic concentration of the test compound on the horizontal axis and the ratio of the area of acetylcholine receptor cluster region on the vertical axis, the inducing action of the test compound can be determined.
A concentration response curve as an index indicating acetylcholine receptor clustering inducing action of the test compound in mouse C2Cl2 cells was prepared. C2Cl2 cells (ATCC Number: CRL-1772) were seeded at about 5000 cells/well on a 384-well plate (354667; Corning) coated with type I collagen and allowed to incubate at 37 degrees Celsius overnight in DMEM+20% FBS+1% penicillin/streptomycin medium. The following day, the medium was removed and replaced with a differentiation medium containing DMEM+2% FBS+1% penicillin/streptomycin, and allowed to incubate at 37 degrees Celsius for 4 days. The test compound was dissolved in DMSO and added to a differentiation medium containing 0.1 ng/ml Agrin (550-AG-100; R&D systems) such that the final concentration was […] (3-fold serial dilution) or 0.00017 to 3.3 μM (3-fold serial dilution). The final concentration of DMSO was 0.3%. After the 4 days of incubation, the differentiation medium was replaced with a differentiation medium containing the test compound and 0.1 ng/ml Agrin or a differentiation medium containing 0.1 ng/ml Agrin or 10 ng/ml Agrin alone, and allowed to incubate at 37 degrees Celsius overnight. The next day, 10 μl of DMEM containing Bungarotoxin-Alexa488 (B13422; Life technologies) was added to the differentiation medium containing test compound and Agrin and Agrin alone so that the final concentration of Bungarotoxin-Alexa488 was 1 μg/ml, and was allowed to incubate at 37 degrees Celsius for 1 hour to label the acetylcholine receptor. After removing all the medium, 4% PFA was added to each well and allowed to incubate at room temperature for 10 minutes, then washed with PBS, and allowed to incubate at room temperature for 30 minutes in PBS containing 5% goat serum and 0.3% Triton X-100. After removing the PBS solution, PBS-Tween20 (28352; Thermo fisher scientific) containing Anti-Myosin Heavy Chain eFluor (registered trademark) 660 (50-6503-82; eBioscience) and DAPI (340-07971; Dojindo) was added to each well and allowed to incubate at room temperature for 1 hour to label the myotubes and nuclei. After washing three times with PBS-Tween20, the fluorescence was imaged using IN Cell Analyzer 6000 (GE Healthcare). […] The response of control group (1) was regarded as 0% and the response of the control group (2) was regarded as 100%. For quantification, the signal of only the acetylcholine receptor present in the myotube was used to eliminate non-specific fluorescence.
EC50 and Max value were used as indicators of activity in order to quantitatively evaluate the inducing action of the test compound on acetylcholine receptor clustering. EC50 value is a test compound concentration which indicates 50% in terms of the area of acetylcholine receptor cluster region compared to that of 10 ng/ml Agrin (regarded as 100%) in the concentration response curve. EC50 was calculated by nonlinear regression analysis from the concentration response curve using the area of the cluster region of the test compound as an index. Max value is the maximum response value. […]

Assay [5] deals with acetylcholine receptor clustering. As to conditions: reported in NPL 15; cited from earlier work.
Setting [6] is: maximum response, area of acetylcholine receptor cluster region vs 10 ng/ml Agrin (100%), 0.1 ng/ml Agrin = 0%.
[7] abbreviates: C2Cl2 myotubes, with 0.1 ng/ml Agrin, concentration giving 50% of cluster area of 10 ng/ml Agrin (100%), read-out: EC50.

Each structure is given as a SMILES string. Like-named read-outs stand apart in the source and are kept apart here.

Take `C=C1CC[C@H](O)C/C1=C/C=C1\CCC[C@]2(C)[C@@H]([C@H](C)CCCC(C)C)CC[C@@H]12`: the “inducing action on acetylcholine receptor clustering in combination with Agrin” value in assay [1] is on record as “promotes an inducing action on acetylcholine receptor clustering”.
Regarding `Cc1cc(-c2c(F)cc(S(=O)(=O)N3CC[C@H](F)C3)cc2F)nc2cc(C(=O)[O-])ccc12.[Na+]` [Example 2, sodium 2-{2,6-difluoro-4-[(3S)-3-fluoropyrrolidine-1-sulfonyl]phenyl}-4-methylquinoline-7-carboxylate], the “suppressing action on grip strength decrease” value in assay [2] (10 mg/kg oral twice daily) and in assay [2] (30 mg/kg oral twice daily) was “suppressing action on grip strength decrease” throughout.
As for `Cc1c(F)c(-c2c(F)cc(S(=O)(=O)N3CCC(F)CC3)cc2F)nc2cc(C(=O)O)ccc12` [Example 18, 2-[2,6-difluoro-4-(4-fluoropiperidine-1-sulfonyl)phenyl]-3-fluoro-4-methylquinoline-7-carboxylic acid], the “suppressing action on grip strength decrease” value in assay [3] (3 mg/kg oral twice daily) and in assay [3] (10 mg/kg oral twice daily) was “suppressing action on grip strength decrease” each time. In addition, in assay [4] (setting [6]), the Emax stood at 99.8%. Further, in assay [4] (setting [7]), the EC50 (commonly the concentration at which the effect is half-maximal) came to 3 nM.
As to `Cc1cc(-c2c(F)cc(S(=O)(=O)N3CCC(F)CC3)cc2F)nc2cc(C(=O)O)ccc12` [Example 19, 2-[2,6-difluoro-4-(4-fluoropiperidine-1-sulfonyl)phenyl]-4-methylquinoline-7-carboxylic acid], in assay [3] (10 mg/kg oral twice daily), the “suppressing action on grip strength decrease” value is given as “suppressing action on grip strength decrease”. In assay [4] (setting [6]), the Emax was 108%. Also, the EC50 in assay [4] (setting [7]) was 16 nM.
Regarding `Cc1cc(-c2c(F)cc(S(=O)(=O)N3CC[C@H](F)C3)cc2F)cc2nc(N3CCNCC3)ccc12` [Example 66], the Emax in assay [4] (setting [6]) stood at 88.4%. Moreover, in assay [4] (setting [7]), the EC50 worked out at 10 nM.
With `Cc1cc(-c2c(F)cc(S(=O)(=O)N3CC[C@H](F)C3)cc2F)cc2cc(C(=O)O)ccc12` [Example 67], in assay [4], the Emax stood at 94.3% and the EC50 came to 15 nM.
In the case of `CC(C)(C)NCC(O)c1ccc(O)c(CO)c1` (stereo not drawn) [salbutamol], in assay [5], the “inducing action on acetylcholine receptor clustering” value is “has an inducing action on acetylcholine receptor clustering”.
